Legend:
[1] = tested on: cardiac fibroblasts and splenic monocytes; assay: Adhesion experiment of monocytes with cardiac fibroblasts in vitro (TNFα stimulation); assay type: cell-based, neonatal rat (fibroblasts), mouse (monocytes); conditions: stimulation with TNFα for 24 hours; monocytes incubated 30 min at 37° C.; In Cell Analyzer 6000
Experimental: (§1) For the cardiac fibroblasts, fibroblasts isolated after cell dispersion of a heart harvested from a neonatal rat with Collagenase type 2 (Worthington Biochemical Corporation, LS004176) were cultured in a 96-well plate. For splenic monocytes, a spleen was harvested from a wild-type mouse and homogenized, and then the monocyte fraction was collected by specific gravity separation using Optiprep (Serumwerk Bernburg, 1893). For the adhesion experiment, the cardiac fibroblasts were cultured in the 96-well plate for 48 hours, and then medium was replaced with TNFα+/− and cultured for another 24 hours. The splenic monocytes subjected to fluorescent staining (Hoechst 33342 (DOJINDO LABORATORIES, 341-07901) or Cytored (DOJINDO LABORATORIES, 342-08531)) were added and incubated at 37° C. for 30 min. After washing 6 times with PBS (−) to remove non-adherent monocytes, and then adherent monocytes were counted on In Cell Analyzer 6000 (GE Healthcare Life Sciences).
(§2) The TNFα (Peprotech, 300-01A) was added to the wells at a final concentration of 5 to 15 ng/ml.

Vcam-1 = assay: Induction of Vcam-1 by TNFα in cardiac fibroblasts (Western blotting); assay type: cell-based, rat; conditions: 12 hours and 24 hours after addition of TNFα versus 0 hour, TNFα 5 to 15 ng/ml
Experimental: as §1, §2
Induction of the Vcam-1 by the TNFα was determined by Western blotting. Anti-Vcam1 antibody EPR5047 (Abcam, ab134047) was used as a primary antibody for the Western blotting. An HRP-conjugated anti-Rabbit antibody was used for detection, and Chemi-Lumi One L (Nacalai tesque, 07880-70) was used as a luminescence reagent. […]

MRL-Pdcd1^−/− mice = assay: AJM300 mixed diet in myocarditis model (survival, echocardiography); assay type: in vivo, mouse
Experimental: […] MRL-Pdcd1^−/− mice were divided into two groups: AJM300 (−) group (n=13) not to be administered with the AJM300 and AJM300 (+) group (n=12) to be administered with the AJM300.
The AJM300 group (+) was administered with a mixed diet containing 1% of AJM300 from 2 weeks of age until death.
At 28 days of age, 9 mice in the AJM300 (−) group and 10 mice in the AJM300 (+) group were evaluated for the cardiac function by the echocardiography and then euthanized to collect heart and blood samples.

[2] = 1% AJM300 mixed diet, 28 days of age, versus AJM300 (−) group, t-test p=0.0231

| Compound | adhesion between the cardiac fibroblasts and the monocytes [1] | expression of the Vcam-1 (Western blotting) (Vcam-1) | heart rate (echocardiography) (MRL-Pdcd1^−/− mice; [2]) | left ventricular contractile performance: % Fractional Shortening (MRL-Pdcd1^−/− mice; [2]) | survival time (Kaplan-Meier) versus AJM300 (−) group (MRL-Pdcd1^−/− mice; mixed diet containing 1% of AJM300 from 2 weeks of age until death, Log-rank test p=0.0022) |
| --- | --- | --- | --- | --- | --- |
| TNFα | strengthened | increased more |  |  |  |
| COC(=O)[C@H](Cc1ccc(-n2c(=O)c3cc(N(C)C)ccc3n(C)c2=O)cc1)NC(=O)c1c(Cl)cccc1Cl [AJM300, carotegrast methyl] |  |  | significantly ameliorated bradycardia | significantly improved left ventricular contractile performance | significantly prolonged |
